Data on 30 molecules can be found in US20260028365A1 (BIOGEN MA INC., priority 2022, published 2026).

The structures appear in SMILES notation.

Sequence of Tyk2 (P29597 whole entry): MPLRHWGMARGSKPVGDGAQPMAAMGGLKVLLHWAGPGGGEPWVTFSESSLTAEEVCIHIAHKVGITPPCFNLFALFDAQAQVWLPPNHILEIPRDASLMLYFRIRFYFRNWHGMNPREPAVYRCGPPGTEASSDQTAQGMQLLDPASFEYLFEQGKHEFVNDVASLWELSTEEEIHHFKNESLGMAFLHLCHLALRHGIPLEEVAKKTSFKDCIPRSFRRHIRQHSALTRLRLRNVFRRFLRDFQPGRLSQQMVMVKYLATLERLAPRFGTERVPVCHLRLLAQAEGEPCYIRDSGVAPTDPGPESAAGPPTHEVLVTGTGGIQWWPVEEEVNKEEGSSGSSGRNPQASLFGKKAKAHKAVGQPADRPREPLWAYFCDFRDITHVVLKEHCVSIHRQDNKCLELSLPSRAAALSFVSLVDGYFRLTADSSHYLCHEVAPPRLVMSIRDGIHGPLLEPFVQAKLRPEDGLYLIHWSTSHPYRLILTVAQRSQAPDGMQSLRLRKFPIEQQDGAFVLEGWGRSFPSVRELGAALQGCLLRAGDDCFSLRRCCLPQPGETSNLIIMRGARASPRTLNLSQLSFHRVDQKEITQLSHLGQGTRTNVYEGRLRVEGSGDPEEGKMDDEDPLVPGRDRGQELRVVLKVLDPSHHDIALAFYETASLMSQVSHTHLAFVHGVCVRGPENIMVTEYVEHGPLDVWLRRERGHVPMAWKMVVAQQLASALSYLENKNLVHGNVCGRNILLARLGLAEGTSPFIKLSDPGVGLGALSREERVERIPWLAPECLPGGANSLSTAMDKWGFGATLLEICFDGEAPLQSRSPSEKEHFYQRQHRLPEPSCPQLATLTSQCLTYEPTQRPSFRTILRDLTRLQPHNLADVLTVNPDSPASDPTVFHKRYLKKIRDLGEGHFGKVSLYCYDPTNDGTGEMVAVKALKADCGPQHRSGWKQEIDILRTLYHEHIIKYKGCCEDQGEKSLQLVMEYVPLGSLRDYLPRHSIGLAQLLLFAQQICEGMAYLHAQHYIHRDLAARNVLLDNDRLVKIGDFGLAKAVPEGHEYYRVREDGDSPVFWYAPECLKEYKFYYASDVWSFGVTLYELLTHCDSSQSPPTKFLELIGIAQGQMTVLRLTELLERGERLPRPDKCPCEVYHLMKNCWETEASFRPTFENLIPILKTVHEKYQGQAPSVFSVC

The first test concerns the target Tyk2 (Homo sapiens (Human), UniProt P29597). Nature of the test: pSTAT4 Cell Assay (MSD, NK92 cells). The format is cell-based.
Conditions: not given
The procedure:
The inhibitory potency of compounds of the disclosure against the Tyk2 kinase activity on STAT4 was evaluated using an MSD-platform plate-based assay format. NK92 cells natively expressing STAT4 and Tyk2 were serum-starved to reduce background phosphorylation levels, then cells were treated compounds for 1 hr with a 10-point four-fold dilution series starting at 10 μM. Cells were then stimulated with 30 ng/mL […] for 15 minutes. […] The data were normalized and the percent activity versus log concentration of compound were fitted with a 4-parameter logistic model to generate to generate IC50 curves.
On to `CN1CCc2sc(-c3cnc(NC=O)cc3Nc3ccnc(C(C)(F)F)n3)nc2C1` [Example 796, N-(4-((2-(1,1-difluoroethyl)pyrimidin-4-yl)amino)-5-(5-methyl-4,5,6,7-tetrahydrothiazolo[4,5-c]pyridin-2-yl)pyridin-2-yl)formamide], for which the IC50 is 10 to 100 nM.
Same read-out and setting: the same measure for `CC(=O)Nc1cc(Nc2cc(C)nc(C(C)(F)F)n2)c(-c2ccn(C(F)F)n2)cn1` [Example 811, N-(4-((2-(1,1-difluoroethyl)-6-methylpyrimidin-4-yl)amino)-5-(1-(difluoromethyl)-1H-pyrazol-3-yl)pyridin-2-yl)acetamide]: 10 to 100 nM; for `CC(=O)Nc1cc(Nc2ccnc(C(C)(F)F)n2)c(-c2cnc(OC(F)F)cn2)cn1` [Example 854, N-(4-((2-(1,1-difluoroethyl)pyrimidin-4-yl)amino)-5-(5-(difluoromethoxy)pyrazin-2-yl)pyridin-2-yl)acetamide]: 10 to 100 nM; for `CCc1cc(Nc2cc(NC(C)=O)ncc2-c2cnc(CN3CCOCC3)cn2)nc(C(C)(F)F)n1` [Example 899, N-(4-((2-(1,1-difluoroethyl)-6-ethylpyrimidin-4-yl)amino)-5-(5-(morpholinomethyl)pyrazin-2-yl)pyridin-2-yl)acetamide]: 10 to 100 nM.
`CCc1cc(Nc2cc(NC(C)=O)ncc2-c2ccc(CN3CCCC3)cn2)nc(C(C)(F)F)n1` [Example 901, N-(4′-((2-(1,1-difluoroethyl)-6-ethylpyrimidin-4-yl)amino)-5-(pyrrolidin-1-ylmethyl)-[2,3′-bipyridin]-6′-yl)acetamide] registered an IC50 of at most 10 nM.
Still for that read-out and setting: the result for `CCc1cc(Nc2cc(NC(C)=O)ncc2-c2ccc(CN3C[C@@H]4C[C@H]3CO4)cn2)nc(C(C)(F)F)n1` [Example 902, N-(5-(((1S,4S)-2-oxa-5-azabicyclo[2.2.1]heptan-5-yl)methyl)-4′-((2-(1,1-difluoroethyl)-6-ethylpyrimidin-4-yl)amino)-[2,3′-bipyridin]-6′-yl)acetamide] reads at most 10 nM; that for `CCc1cc(Nc2cc(NC(C)=O)ncc2-c2ncc(CN3CCCC3)cn2)nc(C(C)(F)F)n1` [Example 903, N-(4-((2-(1,1-difluoroethyl)-6-ethylpyrimidin-4-yl)amino)-5-(5-(pyrrolidin-1-ylmethyl)pyrimidin-2-yl)pyridin-2-yl)acetamide], 100 to 1000 nM; that for `CCc1cc(Nc2cc(NC(C)=O)ncc2-c2ncc(CN3CCCC3)cc2F)nc(C(C)(F)F)n1` [Example 904, N-(4′-((2-(1,1-difluoroethyl)-6-ethylpyrimidin-4-yl)amino)-3-fluoro-5-(pyrrolidin-1-ylmethyl)-[2,3′-bipyridin]-6′-yl)acetamide], at most 10 nM.

Staying with this test, now noted: MSD.
Molecule `CC(=O)Nc1cc(Nc2cc(C)nc(C3CCOC3)n2)c(-c2cc3n(n2)CCN(C)C3)cn1` (stereo not drawn) [Example 547, N-(4-((6-methyl-2-(tetrahydrofuran-3-yl)pyrimidin-4-yl)amino)-5-(5-methyl-4,5,6,7-tetrahydropyrazolo[1,5-a]pyrazin-2-yl)pyridin-2-yl)acetamide] yielded an IC50 of at most 10 nM.
Same read-out and setting: the result for `CC(=O)Nc1cc(Nc2cc(C)nc(C(C)(F)F)n2)c(-c2cc3n(n2)CC(C)N(C)C3)cn1` (stereo not drawn) [Example 548, N-(4-((2-(1,1-difluoroethyl)-6-methylpyrimidin-4-yl)amino)-5-(5,6-dimethyl-4,5,6,7-tetrahydropyrazolo[1,5-a]pyrazin-2-yl)pyridin-2-yl)acetamide] reads at most 10 nM.
Same read-out and setting: the same measure for `COCc1ccc(-c2cnc(NC(C)=O)cc2Nc2cc(C)nc(C3CCCOC3)n2)nc1` (stereo not drawn) [Example 571, N-(5-(methoxymethyl)-4′-((6-methyl-2-(tetrahydrO2H-pyran-3-yl)pyrimidin-4-yl)amino)-[2,3′-bipyridin]-6′-yl)acetamide]: 10 to 100 nM.
Still for that read-out and setting: the result for `CC(=O)Nc1cc(Nc2cc(C)nc(C34COC(C3)C4)n2)c(-c2ccc(N3CCOCC3)cn2)cn1` [Example 574, N-(4′-((2-(2-oxabicyclo[2.1.1]hexan-4-yl)-6-methylpyrimidin-4-yl)amino)-5-morpholinO[2,3′-bipyridin]-6′-yl)acetamide] reads at most 10 nM; that for `COCc1ccc(-c2cnc(NC(C)=O)cc2Nc2nc(C(C)(F)F)ncc2OC)nc1` [Example 589, N-(4′-((2-(1,1-difluoroethyl)-5-methoxypyrimidin-4-yl)amino)-5-(methoxymethyl)-[2,3′-bipyridin]-6′-yl)acetamide], at most 10 nM; that for `COc1cnc(C(C)(F)F)nc1Nc1cc(NC(C)=O)ncc1-c1ccn(C)n1` [Example 590, N-(4-((2-(1,1-difluoroethyl)-5-methoxypyrimidin-4-yl)amino)-5-(1-methyl-1H-pyrazol-3-yl)pyridin-2-yl)acetamide], 10 to 100 nM.
`COc1nc(-c2cnc(NC(C)=O)cc2Nc2cc(C)nc(C(C)(F)F)n2)nn1C` [Example 609, N-(4-((2-(1,1-difluoroethyl)-6-methylpyrimidin-4-yl)amino)-5-(5-methoxy-1-methyl-1H-1,2,4-triazol-3-yl)pyridin-2-yl)acetamide] gave an IC50 of 100 to 1000 nM.
Still for that read-out and setting: the result for `CC(=O)Nc1cc(Nc2cc(C)nc(C(C)(F)F)n2)c(-c2nn(C)cc2F)cn1` [Example 616, N-(4-((2-(1,1-difluoroethyl)-6-methylpyrimidin-4-yl)amino)-5-(4-fluorO1-methyl-1H-pyrazol-3-yl)pyridin-2-yl)acetamide] reads 10 to 100 nM; that for `CC(=O)Nc1cc(Nc2cc(C)nc(C(C)(F)F)n2)c(-c2ccnc(N(C)C)n2)cn1` [Example 629, N-(4-((2-(1,1-difluoroethyl)-6-methylpyrimidin-4-yl)amino)-5-(2-(dimethylamino)pyrimidin-4-yl)pyridin-2-yl)acetamide], at most 10 nM; that for `CC(=O)Nc1cc(Nc2cc(C)nc(C(C)(F)F)n2)c(-c2cccc(C3CCCO3)n2)cn1` (stereo not drawn) [Example 639, N-(4′-((2-(1,1-difluoroethyl)-6-methylpyrimidin-4-yl)amino)-6-(tetrahydrofuran-2-yl)-[2,3′-bipyridin]-6′-yl)acetamide], at most 10 nM.
`CC(=O)Nc1cc(Nc2ccnc(C(C)(F)F)n2)c(-c2cccc(C(C)(C)C#N)n2)cn1` [Example 653, N-(6-(2-cyanopropan-2-yl)-4′-((2-(1,1-difluoroethyl)pyrimidin-4-yl)amino)-[2,3′-bipyridin]-6′-yl)acetamide] registered an IC50 of 10 to 100 nM.
The same measure, in the same setting: the result for `COc1ccnc(-c2cnc(NC(C)=O)cc2Nc2cc(C)nc(C(C)(F)F)n2)n1` [Example 658, N-(4-((2-(1,1-difluoroethyl)-6-methylpyrimidin-4-yl)amino)-5-(4-methoxypyrimidin-2-yl)pyridin-2-yl)acetamide] reads at least 1000 nM; that for `COc1nc(-c2cnc(NC(C)=O)cc2Nc2cc(C)nc(C(C)(F)F)n2)ncc1F` [Example 659, N-(4-((2-(1,1-difluoroethyl)-6-methylpyrimidin-4-yl)amino)-5-(5-fluorO4-methoxypyrimidin-2-yl)pyridin-2-yl)acetamide], at least 1000 nM; that for `COCCc1cncc(-c2cnc(NC(C)=O)cc2Nc2cc(C)nc(C(C)(F)F)n2)n1` [Example 664, N-(4-((2-(1,1-difluoroethyl)-6-methylpyrimidin-4-yl)amino)-5-(6-(2-methoxyethyl)pyrazin-2-yl)pyridin-2-yl)acetamide], 10 to 100 nM.
As for `CC(=O)Nc1cc(Nc2cc(C)nc(C(C)(F)F)n2)c(-c2nccc(N3CCOCC3)n2)cn1` [Example 674, N-(4-((2-(1,1-difluoroethyl)-6-methylpyrimidin-4-yl)amino)-5-(4-morpholinopyrimidin-2-yl)pyridin-2-yl)acetamide], the IC50 is at least 1000 nM.
On the same count and under the same terms, the result for `CC(=O)Nc1cc(Nc2cc(C)nc(C(C)(F)F)n2)c(-c2ncc3c(n2)COC3)cn1` [Example 678, N-(4-((2-(1,1-difluoroethyl)-6-methylpyrimidin-4-yl)amino)-5-(5,7-dihydrofuro[3,4-d]pyrimidin-2-yl)pyridin-2-yl)acetamide] reads 10 to 100 nM; that for `CC(=O)Nc1cc(Nc2cc(C)nc(C(C)(F)F)n2)c(-c2ccc3c(n2)CCOC3)cn1` [Example 679, N-(4-((2-(1,1-difluoroethyl)-6-methylpyrimidin-4-yl)amino)-5-(7,8-dihydrO5H-pyrano[4,3-b]pyridin-2-yl)pyridin-2-yl)acetamide], at most 10 nM.
Same read-out and setting: the result for `CC(=O)Nc1cc(Nc2cc(C)nc(C(C)(F)F)n2)c(C2=NC3C(=O)OCC3C=N2)cn1` (stereo not drawn) [Example 682, N-(4-((2-(1,1-difluoroethyl)-6-methylpyrimidin-4-yl)amino)-5-(7-oxO4a,5,7,7a-tetrahydrofuro[3,4-d]pyrimidin-2-yl)pyridin-2-yl)acetamide] reads at most 10 nM; that for `CC(=O)Nc1cc(Nc2cc(C)nc(C(C)(F)F)n2)c(-c2cc3n(n2)CCN(C)C3C)cn1` (stereo not drawn) [Example 683, N-(4-((2-(1,1-difluoroethyl)-6-methylpyrimidin-4-yl)amino)-5-(4,5-dimethyl-4,5,6,7-tetrahydropyrazolo[1,5-a]pyrazin-2-yl)pyridin-2-yl)acetamide], at most 10 nM; that for `CC(=O)Nc1cc(Nc2cc(C)nc(C(C)(F)F)n2)c(-c2nc3c(s2)CN(C)C3)cn1` [Example 684, N-(4-((2-(1,1-difluoroethyl)-6-methylpyrimidin-4-yl)amino)-5-(5-methyl-5,6-dihydrO4H-pyrrolo[3,4-d]thiazol-2-yl)pyridin-2-yl)acetamide], at most 10 nM.
In turn, `CC(=O)Nc1cc(Nc2ccnc(C(C)(F)F)n2)c(-c2cnc(C)cn2)cn1` [Example 693, N-(4-((2-(1,1-difluoroethyl)pyrimidin-4-yl)amino)-5-(5-methylpyrazin-2-yl)pyridin-2-yl)acetamide] had an IC50 of 10 to 100 nM.
Still for that read-out and setting: the same measure for `CCc1cc(Nc2cc(NC(C)=O)ncc2-c2cc3n(n2)CCN(C)C3)nc(C(C)(F)F)n1` [Example 721, N-(4-((2-(1,1-difluoroethyl)-6-ethylpyrimidin-4-yl)amino)-5-(5-methyl-4,5,6,7-tetrahydropyrazolo[1,5-a]pyrazin-2-yl)pyridin-2-yl)acetamide]: at most 10 nM.

As usually defined, the IC50 is the concentration at which inhibition is half-maximal. A lower IC50 goes with inhibition by little substance.
